According to the supplement of paper PMC8882468:

system: HCI-001 (organoid from a triple-negative breast cancer xenograft); assay: CTG-3D luminescence at 96 h relative to day-0 seeding control (ratio to day 0); higher = more growth / less cytotoxicity; PDxO 3D drug screen, 96 h, CTG-3D normalised to day-0 seeding control.; conditions: 100 µM; days in culture: 346

| Compound | CTG-3D luminescence at 96 h |
| --- | --- |
| COc1cc2c(Oc3ccc4[nH]c(C)cc4c3F)ncnc2cc1OCCCN1CCCC1 [cediranib] | 0.00677 |
| CC(C)n1nc(-c2ccc3oc(N)nc3c2)c2c(N)ncnc21 [sapanisertib] | 0.15 |
| Cc1cc(Nc2ncnc3ccc(NC4=NC(C)(C)CO4)cc23)ccc1Oc1ccn2ncnc2c1 [tucatinib] | 0.0455 |
| C[C@H](NC(=O)CCC(F)(F)F)C(=O)N[C@@H]1C(=O)N(CCO)c2ncccc2-c2ccccc21 [crenigacestat] | 1.76 |
| C[C@]12CC[C@@H]3c4ccc(O)cc4C[C@@H](CCCCCCCCC[S+]([O-])CCCC(F)(F)C(F)(F)F)[C@H]3[C@@H]1CC[C@@H]2O (some centres not stated) [fulvestrant] | 1.38 |
| O=C(c1ccc(F)c(F)c1Nc1ccc(I)cc1F)N1CC(O)([C@@H]2CCCCN2)C1 [cobimetinib] | -7.73e-05 |
| O=C(/C=C/c1cccnc1)NCCCCC1CCN(C(=O)c2ccccc2)CC1 [FK866] | 0.128 |
| CS(=O)(=O)c1ccc(C(=O)Nc2ccc(Cl)c(-c3ccccn3)c2)c(Cl)c1 [vismodegib] | 1.35 |
| C=CCn1c(=O)c2cnc(Nc3ccc(N4CCN(C)CC4)cc3)nc2n1-c1cccc(C(C)(C)O)n1 [adavosertib] | 0.121 |

same assay, conditions: 100 µM; days in culture: 364

| Compound | CTG-3D luminescence at 96 h |
| --- | --- |
| COc1cc2c(Oc3ccc4[nH]c(C)cc4c3F)ncnc2cc1OCCCN1CCCC1 [cediranib] | 0.00077 |
| CC(C)n1nc(-c2ccc3oc(N)nc3c2)c2c(N)ncnc21 [sapanisertib] | 0.14 |
| Cc1cc(Nc2ncnc3ccc(NC4=NC(C)(C)CO4)cc23)ccc1Oc1ccn2ncnc2c1 [tucatinib] | 0.0245 |
| C[C@H](NC(=O)CCC(F)(F)F)C(=O)N[C@@H]1C(=O)N(CCO)c2ncccc2-c2ccccc21 [crenigacestat] | 1.1 |
| C[C@]12CC[C@@H]3c4ccc(O)cc4C[C@@H](CCCCCCCCC[S+]([O-])CCCC(F)(F)C(F)(F)F)[C@H]3[C@@H]1CC[C@@H]2O (some centres not stated) [fulvestrant] | 1.02 |
| O=C(c1ccc(F)c(F)c1Nc1ccc(I)cc1F)N1CC(O)([C@@H]2CCCCN2)C1 [cobimetinib] | 0.000378 |
| O=C(/C=C/c1cccnc1)NCCCCC1CCN(C(=O)c2ccccc2)CC1 [FK866] | 0.0948 |
| CS(=O)(=O)c1ccc(C(=O)Nc2ccc(Cl)c(-c3ccccn3)c2)c(Cl)c1 [vismodegib] | 1.1 |
| C=CCn1c(=O)c2cnc(Nc3ccc(N4CCN(C)CC4)cc3)nc2n1-c1cccc(C(C)(C)O)n1 [adavosertib] | 0.0626 |

same assay, conditions: 625 fM; days in culture: 240

| Compound | CTG-3D luminescence at 96 h |
| --- | --- |
| COc1cc2c(Oc3ccc4[nH]c(C)cc4c3F)ncnc2cc1OCCCN1CCCC1 [cediranib] | 1.37 |
| CC(C)n1nc(-c2ccc3oc(N)nc3c2)c2c(N)ncnc21 [sapanisertib] | 1.12 |
| Cc1cc(Nc2ncnc3ccc(NC4=NC(C)(C)CO4)cc23)ccc1Oc1ccn2ncnc2c1 [tucatinib] | 1.43 |
| C[C@H](NC(=O)CCC(F)(F)F)C(=O)N[C@@H]1C(=O)N(CCO)c2ncccc2-c2ccccc21 [crenigacestat] | 0.941 |
| C[C@]12CC[C@@H]3c4ccc(O)cc4C[C@@H](CCCCCCCCC[S+]([O-])CCCC(F)(F)C(F)(F)F)[C@H]3[C@@H]1CC[C@@H]2O (some centres not stated) [fulvestrant] | 1.65 |
| O=C(c1ccc(F)c(F)c1Nc1ccc(I)cc1F)N1CC(O)([C@@H]2CCCCN2)C1 [cobimetinib] | 1.41 |
| O=C(/C=C/c1cccnc1)NCCCCC1CCN(C(=O)c2ccccc2)CC1 [FK866] | 1.79 |
| CS(=O)(=O)c1ccc(C(=O)Nc2ccc(Cl)c(-c3ccccn3)c2)c(Cl)c1 [vismodegib] | 2.27 |
| C=CCn1c(=O)c2cnc(Nc3ccc(N4CCN(C)CC4)cc3)nc2n1-c1cccc(C(C)(C)O)n1 [adavosertib] | 1.51 |

same assay, conditions: 625 fM; days in culture: 260

| Compound | CTG-3D luminescence at 96 h |
| --- | --- |
| COc1cc2c(Oc3ccc4[nH]c(C)cc4c3F)ncnc2cc1OCCCN1CCCC1 [cediranib] | 1.3 |
| CC(C)n1nc(-c2ccc3oc(N)nc3c2)c2c(N)ncnc21 [sapanisertib] | 1.6 |
| Cc1cc(Nc2ncnc3ccc(NC4=NC(C)(C)CO4)cc23)ccc1Oc1ccn2ncnc2c1 [tucatinib] | 1.5 |
| C[C@H](NC(=O)CCC(F)(F)F)C(=O)N[C@@H]1C(=O)N(CCO)c2ncccc2-c2ccccc21 [crenigacestat] | 1.44 |
| C[C@]12CC[C@@H]3c4ccc(O)cc4C[C@@H](CCCCCCCCC[S+]([O-])CCCC(F)(F)C(F)(F)F)[C@H]3[C@@H]1CC[C@@H]2O (some centres not stated) [fulvestrant] | 1.68 |
| O=C(c1ccc(F)c(F)c1Nc1ccc(I)cc1F)N1CC(O)([C@@H]2CCCCN2)C1 [cobimetinib] | 1.87 |
| O=C(/C=C/c1cccnc1)NCCCCC1CCN(C(=O)c2ccccc2)CC1 [FK866] | 1.44 |
| CS(=O)(=O)c1ccc(C(=O)Nc2ccc(Cl)c(-c3ccccn3)c2)c(Cl)c1 [vismodegib] | 1.99 |
| C=CCn1c(=O)c2cnc(Nc3ccc(N4CCN(C)CC4)cc3)nc2n1-c1cccc(C(C)(C)O)n1 [adavosertib] | 1.14 |

same assay, conditions: 625 fM; days in culture: 269

| Compound | CTG-3D luminescence at 96 h |
| --- | --- |
| COc1cc2c(Oc3ccc4[nH]c(C)cc4c3F)ncnc2cc1OCCCN1CCCC1 [cediranib] | 1.63 |
| CC(C)n1nc(-c2ccc3oc(N)nc3c2)c2c(N)ncnc21 [sapanisertib] | 1.56 |
| Cc1cc(Nc2ncnc3ccc(NC4=NC(C)(C)CO4)cc23)ccc1Oc1ccn2ncnc2c1 [tucatinib] | 1.69 |
| C[C@H](NC(=O)CCC(F)(F)F)C(=O)N[C@@H]1C(=O)N(CCO)c2ncccc2-c2ccccc21 [crenigacestat] | 1.33 |
| C[C@]12CC[C@@H]3c4ccc(O)cc4C[C@@H](CCCCCCCCC[S+]([O-])CCCC(F)(F)C(F)(F)F)[C@H]3[C@@H]1CC[C@@H]2O (some centres not stated) [fulvestrant] | 1.43 |
| O=C(c1ccc(F)c(F)c1Nc1ccc(I)cc1F)N1CC(O)([C@@H]2CCCCN2)C1 [cobimetinib] | 1.53 |
| O=C(/C=C/c1cccnc1)NCCCCC1CCN(C(=O)c2ccccc2)CC1 [FK866] | 1.6 |
| CS(=O)(=O)c1ccc(C(=O)Nc2ccc(Cl)c(-c3ccccn3)c2)c(Cl)c1 [vismodegib] | 1.51 |
| C=CCn1c(=O)c2cnc(Nc3ccc(N4CCN(C)CC4)cc3)nc2n1-c1cccc(C(C)(C)O)n1 [adavosertib] | 1.65 |

same assay, conditions: 625 fM; days in culture: 327

| Compound | CTG-3D luminescence at 96 h |
| --- | --- |
| COc1cc2c(Oc3ccc4[nH]c(C)cc4c3F)ncnc2cc1OCCCN1CCCC1 [cediranib] | 1.84 |
| CC(C)n1nc(-c2ccc3oc(N)nc3c2)c2c(N)ncnc21 [sapanisertib] | 1.75 |
| Cc1cc(Nc2ncnc3ccc(NC4=NC(C)(C)CO4)cc23)ccc1Oc1ccn2ncnc2c1 [tucatinib] | 1.78 |
| C[C@H](NC(=O)CCC(F)(F)F)C(=O)N[C@@H]1C(=O)N(CCO)c2ncccc2-c2ccccc21 [crenigacestat] | 1.76 |
| C[C@]12CC[C@@H]3c4ccc(O)cc4C[C@@H](CCCCCCCCC[S+]([O-])CCCC(F)(F)C(F)(F)F)[C@H]3[C@@H]1CC[C@@H]2O (some centres not stated) [fulvestrant] | 2.08 |
| O=C(c1ccc(F)c(F)c1Nc1ccc(I)cc1F)N1CC(O)([C@@H]2CCCCN2)C1 [cobimetinib] | 1.52 |
| O=C(/C=C/c1cccnc1)NCCCCC1CCN(C(=O)c2ccccc2)CC1 [FK866] | 1.78 |
| CS(=O)(=O)c1ccc(C(=O)Nc2ccc(Cl)c(-c3ccccn3)c2)c(Cl)c1 [vismodegib] | 1.94 |
| C=CCn1c(=O)c2cnc(Nc3ccc(N4CCN(C)CC4)cc3)nc2n1-c1cccc(C(C)(C)O)n1 [adavosertib] | 1.68 |

same assay, conditions: 625 fM; days in culture: 346

| Compound | CTG-3D luminescence at 96 h |
| --- | --- |
| COc1cc2c(Oc3ccc4[nH]c(C)cc4c3F)ncnc2cc1OCCCN1CCCC1 [cediranib] | 1.33 |
| CC(C)n1nc(-c2ccc3oc(N)nc3c2)c2c(N)ncnc21 [sapanisertib] | 1.13 |
| Cc1cc(Nc2ncnc3ccc(NC4=NC(C)(C)CO4)cc23)ccc1Oc1ccn2ncnc2c1 [tucatinib] | 1.21 |
| C[C@H](NC(=O)CCC(F)(F)F)C(=O)N[C@@H]1C(=O)N(CCO)c2ncccc2-c2ccccc21 [crenigacestat] | 1.11 |
| C[C@]12CC[C@@H]3c4ccc(O)cc4C[C@@H](CCCCCCCCC[S+]([O-])CCCC(F)(F)C(F)(F)F)[C@H]3[C@@H]1CC[C@@H]2O (some centres not stated) [fulvestrant] | 1.11 |
| O=C(c1ccc(F)c(F)c1Nc1ccc(I)cc1F)N1CC(O)([C@@H]2CCCCN2)C1 [cobimetinib] | 1.11 |
| O=C(/C=C/c1cccnc1)NCCCCC1CCN(C(=O)c2ccccc2)CC1 [FK866] | 1.08 |
| CS(=O)(=O)c1ccc(C(=O)Nc2ccc(Cl)c(-c3ccccn3)c2)c(Cl)c1 [vismodegib] | 1.34 |
| C=CCn1c(=O)c2cnc(Nc3ccc(N4CCN(C)CC4)cc3)nc2n1-c1cccc(C(C)(C)O)n1 [adavosertib] | 1.33 |

same assay, conditions: 625 fM; days in culture: 364

| Compound | CTG-3D luminescence at 96 h |
| --- | --- |
| COc1cc2c(Oc3ccc4[nH]c(C)cc4c3F)ncnc2cc1OCCCN1CCCC1 [cediranib] | 1.44 |
| CC(C)n1nc(-c2ccc3oc(N)nc3c2)c2c(N)ncnc21 [sapanisertib] | 1.46 |
| Cc1cc(Nc2ncnc3ccc(NC4=NC(C)(C)CO4)cc23)ccc1Oc1ccn2ncnc2c1 [tucatinib] | 1.63 |
| C[C@H](NC(=O)CCC(F)(F)F)C(=O)N[C@@H]1C(=O)N(CCO)c2ncccc2-c2ccccc21 [crenigacestat] | 1.43 |
| C[C@]12CC[C@@H]3c4ccc(O)cc4C[C@@H](CCCCCCCCC[S+]([O-])CCCC(F)(F)C(F)(F)F)[C@H]3[C@@H]1CC[C@@H]2O (some centres not stated) [fulvestrant] | 1.75 |
| O=C(c1ccc(F)c(F)c1Nc1ccc(I)cc1F)N1CC(O)([C@@H]2CCCCN2)C1 [cobimetinib] | 1.51 |
| O=C(/C=C/c1cccnc1)NCCCCC1CCN(C(=O)c2ccccc2)CC1 [FK866] | 1.5 |
| CS(=O)(=O)c1ccc(C(=O)Nc2ccc(Cl)c(-c3ccccn3)c2)c(Cl)c1 [vismodegib] | 1.64 |
| C=CCn1c(=O)c2cnc(Nc3ccc(N4CCN(C)CC4)cc3)nc2n1-c1cccc(C(C)(C)O)n1 [adavosertib] | 1.6 |
